Patent publication US20130053337A1, “GUANIDINYLATED AMINOGLYCOSIDE-LIPID CONJUGATES” (UNIVERSITY OF MANITOBA, priority 2010, published 2013)

Assays:
S. aureus ATCC 29213 = assay: MIC, broth macrodilution (CLSI); type: cell-based, Staphylococcus aureus; conditions: S. aureus ATCC29213
Method: (§1) All experiments were performed in duplicate.
(§2) Bacterial isolates studied included both reference strains obtained from the American Type Culture Collection (ATCC) as well as clinical strains obtained from the CAN-ICU study which was a national surveillance study assessing the prevalence of antimicrobial resistant pathogens in Canadian intensive care units (Zhanel et al., 2008). Isolates were kept frozen in skim milk at −80° C. until minimum inhibitory concentration (MIC) testing was carried out. Following two subcultures from frozen stock, the in vitro activities of peptides were determined by macrobroth dilution in accordance with the Clinical and Laboratory Standards Institute (CLSI) 2006 guidelines (Zhanel et al., 2008). Stock solutions of peptides were prepared and dilutions made as described by CLSI. Test tubes contained doubling antimicrobial dilutions of cation adjusted Mueller-Hinton broth and inoculated to achieve a final concentration of approximately 5×10^5 cfu/ml then incubated in ambient air for 24 hours prior to reading. Colony counts were performed periodically to confirm inocula. Quality control was regularly performed using ATCC QC organisms.

MRSA ATCC 33592 = assay: MIC, broth macrodilution (CLSI); type: cell-based, methicillin-resistant Staphylococcus aureus; conditions: for MIC: MRSA ATCC33592
Method: as §1, §2

[1] = tested on: S. epidermidis ATCC 14990; assay: MIC, broth macrodilution (CLSI); type: cell-based, Staphylococcus epidermidis; conditions: S. epidermidis ATCC14990
Method: as §1, §2

MRSE CAN-ICU 61589 [2] = assay: MIC, broth macrodilution (CLSI); type: cell-based, methicillin-resistant Staphylococcus epidermidis
Method: as §1, §2

E. faecalis ATCC 29212 = assay: MIC, broth macrodilution (CLSI); type: cell-based, Enterococcus faecalis; conditions: E. faecalis ATCC29212
Method: as §1, §2

E. faecium ATCC 27270 = assay: MIC, broth macrodilution (CLSI); type: cell-based, Enterococcus faecium; conditions: E. facium ATCC27270
Method: as §1, §2

S. pneumoniae ATCC 49619 = assay: MIC, broth macrodilution (CLSI), broth with 5% laked horse blood; type: cell-based, Streptococcus pneumoniae; conditions: S. pneumoniae ATCC49619
Method: as §1, §2

[3] = tested on: E. coli (amikacin MIC 32 mg/L) CAN-ICU 63074; assay: MIC, broth macrodilution (CLSI); type: cell-based; conditions: E. coli CAN-ICU 63074
Method: as §1, §2

[4] = tested on: E. coli (gentamicin-resistant) CAN-ICU 61714; assay: MIC, broth macrodilution (CLSI); type: cell-based; conditions: E. coli CAN-ICU 61714
Method: as §1, §2

E. coli ATCC 25922 = assay: MIC, broth macrodilution (CLSI); type: cell-based; conditions: E. coli ATCC25922
Method: as §1, §2

[5] = tested on: P. aeruginosa (gentamicin-resistant) CAN-ICU 62308; assay: MIC, broth macrodilution (CLSI); type: cell-based
Method: as §1, §2

P. aeruginosa ATCC 27853 = assay: MIC, broth macrodilution (CLSI); type: cell-based; conditions: P. aeruginosa ATCC27853
Method: as §1, §2

[6] = tested on: sheep red blood cell (erythrocytes); assay: Hemolytic assay (in vitro toxicity); conditions: for hemolytic activity at 100 mg/L: sheep erythrocytes, percent hemolysis
Method: Antibacterial activity against Gram-positive and Gram-negative microorganisms was tested via broth macrodilution tests using CLSI methodology (Zhanel et al., 2008). Stock solutions of cationic lipids in water were brought to a concentration of 512 mg/L. Organisms were subcultured and isolated on blood agar, suspended in 3 mL of Mueller-Hinton broth at the turbidity of a […], and diluted to approximately 10^5 cfu/mL before introduction into tubes containing serially diluted lipopeptide antibiotic in Mueller-Hinton broth. Activity testing against S. pneumoniae used broth supplemented with laked horse blood to give 5% horse blood in experimental tubes. Turbidity of lipopeptide solution in broth required creation of control tubes lacking organisms serving as turbidity controls. All tubes were incubated overnight for 16-20 h at 37° C. […] All experiments were performed in duplicate. In-vitro toxicity was determined using a sheep red blood cell hemolytic assay as previously described (Dathe et al., 1996).
In vitro toxicity was determined using a sheep red blood cell (erythrocytes) hemolytic assay (Dathe et al., 1996). […] Erythrocytes were washed and resuspended in Tris buffered saline. The cell suspension was combined with varying concentrations (low to very high) of test and control antimicrobials (e.g., aminoglycosides and APTCs). The samples were centrifuged and the absorbance of the supernatants measured at 540 nm. Tris buffered saline and Triton X were used as negative and positive controls, respectively. The toxicity was assessed by percent hemolysis.

MRSE CAN-ICU 61589 [7] = conditions: Zhanel et al., 2008; cited from earlier work
[8] = gentamicin-resistant (as well as neomycin B and kanamycin A-resistant) P. aeruginosa strain

CCCCCCCCCCCCCCCC(=O)NCC1OC(OC2C(O)C(NC(=N)N)CC(NC(=N)N)C2OC2OC(CNC(=N)N)C(O)C(O)C2NC(=N)N)C(O)C1OC1OC(CNC(=N)N)C(O)C(O)C1NC(=N)N.O=C(O)C(F)(F)F.O=C(O)C(F)(F)F.O=C(O)C(F)(F)F.O=C(O)C(F)(F)F.O=C(O)C(F)(F)F.O=C(O)C(F)(F)F (centres unmarked) [Compound 10, 1,3,2′,6′,2′″,6′″-Hexaammonium-guanidinyl-5″-deoxy-5″-N-(hexadecanoyl)-neomycin hexakis(trifluoroacetate)]
MIC (S. aureus ATCC 29213): 4 µg/mL | MIC (MRSA ATCC 33592): 4 µg/mL | MIC [1]: 1 µg/mL | MIC (MRSE CAN-ICU 61589 [2]): 4 µg/mL | MIC (E. faecalis ATCC 29212): 4 µg/mL | MIC (E. faecium ATCC 27270): 0.5 µg/mL | MIC (S. pneumoniae ATCC 49619): 32 µg/mL | MIC [3]: 32 µg/mL | MIC [4]: 64 µg/mL | MIC (E. coli ATCC 25922): 32 µg/mL | MIC ([5]; P. aeruginosa CAN-ICU 62308): 8 µg/mL | MIC [5, 8]: 8 µg/mL | MIC (P. aeruginosa ATCC 27853): 32 µg/mL | hemolytic activity at 100 mg/L [6]: 13% | hemolytic activity compared to polyamine analogs 3 and 15 ([6]; in words): reduced hemolytic activity

CCCCCCCCCCCC(=O)NCC1OC(OC2C(O)C(NC(=N)N)CC(NC(=N)N)C2OC2OC(CNC(=N)N)C(O)C(O)C2NC(=N)N)C(O)C1OC1OC(CNC(=N)N)C(O)C(O)C1NC(=N)N.O=C(O)C(F)(F)F.O=C(O)C(F)(F)F.O=C(O)C(F)(F)F.O=C(O)C(F)(F)F.O=C(O)C(F)(F)F.O=C(O)C(F)(F)F (centres unmarked) [Compound 9, 1,3,2′,6′,2′″,6′″-Hexaammonium-guanidinyl-5″-deoxy-5″-N-(dodecanoyl)-neomycin hexakis(trifluoroacetate)]
MIC (S. aureus ATCC 29213): 4 µg/mL | MIC (MRSA ATCC 33592): 8 µg/mL | MIC [1]: 2 µg/mL | MIC (MRSE CAN-ICU 61589 [2]): 2 µg/mL | MIC (E. faecalis ATCC 29212): 32 µg/mL | MIC (E. faecium ATCC 27270): 16 µg/mL | MIC (S. pneumoniae ATCC 49619): 64 µg/mL | MIC [3]: 16 µg/mL | MIC [4]: 32 µg/mL | MIC (E. coli ATCC 25922): 16 µg/mL | MIC ([5]; P. aeruginosa CAN-ICU 62308): 32 µg/mL | MIC (P. aeruginosa ATCC 27853): 32 µg/mL | hemolytic activity at 100 mg/L [6]: 2%

Cc1nnc(SCC2=C(C(=O)O)N3C(=O)[C@@H](NC(=O)Cn4cnnn4)[C@H]3SC2)s1 [cefazolin]
MIC (strain description) (MRSE CAN-ICU 61589 [7]): > 32 µg/mL

N=C(N)NCC1OC(OC2C(CNC(=O)CCCc3ccc4ccc5cccc6ccc3c4c56)OC(OC3C(O)C(NC(=N)N)CC(NC(=N)N)C3OC3OC(CNC(=N)N)C(O)C(O)C3NC(=N)N)C2O)C(NC(=N)N)C(O)C1O.O=C(O)C(F)(F)F.O=C(O)C(F)(F)F.O=C(O)C(F)(F)F.O=C(O)C(F)(F)F.O=C(O)C(F)(F)F.O=C(O)C(F)(F)F (centres unmarked) [Compound 13, 1,3,2′,6′,2′″,6′″-Hexaammonium-guanidinyl-5″-deoxy-5″-N-((4-pyrenyl)-butanoyl)-neomycin hexakis(trifluoroacetate)]
MIC (S. aureus ATCC 29213): 8 µg/mL | MIC (MRSA ATCC 33592): 8 µg/mL | fold lower MIC (MRSA) compared to analogs 6 and 7 (MRSA ATCC 33592; MRSA, guanidinylated vs polyamine analog): 32 fold | MIC [1]: 8 µg/mL | MIC (MRSE CAN-ICU 61589 [2]): 8 µg/mL | MIC (E. faecalis ATCC 29212): 32 µg/mL | MIC (E. faecium ATCC 27270): 16 µg/mL | MIC (S. pneumoniae ATCC 49619): 64 µg/mL | MIC [3]: 32 µg/mL | MIC [4]: 32 µg/mL | MIC (E. coli ATCC 25922): 32 µg/mL | MIC ([5]; P. aeruginosa CAN-ICU 62308): 16 µg/mL | MIC [5, 8]: 16 µg/mL | MIC (P. aeruginosa ATCC 27853): 32 µg/mL | hemolytic activity at 100 mg/L [6]: 3%
